# Reference: US9047904B2, “Magnetic recording medium” (priority 2009, dated 2015)
# Details: 50 mg in 20 mL water + 30 mL tetrahydrofuran; titrated with 0.1N NaOH; pH at half of the neutralization titration quantity
# Description: In the present invention, the term “acid strength” refers to a value that is measured by the following method.
# A 50 mg sample of organic acid A or B is dissolved in a mixed solution of 20 mL of water and 30 mL of tetrahydrofuran. Titration to neutral is conducted using a model GT-100 Win automatic titrator made by Mitsubishi Chemical Analytech with 0.1N NaOH (Wako Pure Chemical Industries). The pH corresponding to half of the titration quantity that is added dropwise to attain the neutralization point is read, and that pH is adopted as the acid strength.
# <Acid Strength of Organic Acids A and B>
# A 50 mg sample of organic acid A or B was dissolved in a mixed solution of 20 mL of water and 30 mL of tetrahydrofuran. Titration to neutral was conducted with 0.1N NaOH (Wako Pure Chemical Industries) using a model GT-100 Win automatic titrator made by Mitsubishi Chemical Analytech. The pH corresponding to half of the titration quantity that was added dropwise to attain the neutralization point was read, and that pH was adopted as the acid strength.
Molecule,pKa(B) (acid strength of organic acid B),pKa(A) (acid strength of organic acid A)
"O=C(O)CC(O)(CC(=O)O)C(=O)O [Citric acid, citric acid]",5.84,
Phenyl phosphate,,4.01
